Laboratory results taken from patent US11040052B2, “Methods and pharmaceutical compositions for modulating autophagy in a subject in need thereof” (INSERM (INSTITUT NATIONAL DE LA SANTE ET DE LA RECHERCHE …, priority 2013, dated 2021).
“Also recorded” adds a separate entry of the source.

Legend:
cellular ATP levels = assay: Cellular ATP levels; assay type: cell-based; details: starved cells
[1] = test system: U2OS cells stably expressing GFP-LC3; assay: Microinjection of AcCoA or CoA into the cytoplasm; assay type: cell-based, human; details: 10 mM injected; for Hydroxycitrate-induced autophagy after microinjection: HC-treated cells
Procedure: For microinjection, U2Os cells were cultured overnight on glass coverslips before injection. The setup for the injection itself was as follows: 10 mM CoA or AcCoA were injected in PBS for 0.2 s under a pressure of 150 hPa, using a Microinjector equipment (Eppendorf, Hamburg, Germany). Then cells were culture for 3 h in the presence of 100 nM bafilomycin A1 (BafA1) and fixed for fluorescence microscopy, as described below.
For microinjection, U2OS cells were cultured overnight on culture dishes before injection. The setup for the injection itself was as follows: 10 mM CoA or AcCoA in PBS were injected for 0.2 s under an injection pressure of 150 hPa and a compensatory pressure of 9 hPa, using a microinjector (Eppendorf, Hamburg, Germany). Before injection, cells were cultured for 2 h in the presence of 100 nM bafilomycin A1 (BafA1) in control medium and in presence of 20 mm Hydroxycitrate. One hour after injection, cells were fixed with 4% PFA and analyzed by fluorescent and automated videomicroscopy.

[2] = test system: MPA/DMBA induced mammary tumors; assay: MPA/DMBA induced mammary tumor; assay type: in vivo, mice; details: mouse, in vivo
Procedure: Six-week-old female Balb/c mice underwent surgical implantation of slow-release MPA (Medroxyprogesterone Acetate) pellets (50 mg, 90-day release; Innovative Research of America) subcutaneously on the right flank. 200 uL of 5 mg/mL DMBA (Dimethylbenzantracene)
(Sigma Aldrich) dissolved in Corn Oil was administered by oral gavage six times during 8 weeks. Tumor formation was monitored by palpation. When tumors became palpable, mice were assigned to following groups of treatment: PBS, HCA, MTX, MTX plus HCA and the MTX plus HCA upon CD4/CD8 lymphocytes depletion. Combinatorial groups were treated as previously described, whereas for CD4/CD8 depletion, mice were intraperitoneally administrated with 500 μg of anti CD4 and CD8 antibodies the day before the onset of the treatment.

[3] = test system: intracellular amino acid levels; assay: Intracellular amino acid levels by mass spectrometry; assay type: cell-based; details: starved cells
Procedure: Profiling of intracellular metabolites was performed on a RRLC 1260 system (Agilent Technologies) coupled to a QTOF 6520 (Agilent) equipped with an electrospray source operating in positive ion and full scan mode from 100 to 1000 Da. The gas temperature was set at 350° C. with a gas flow of 10 L·min^1. The capillary voltage was set at 4.0 kV, and the fragmentor at 150 V. Two reference masses were used to maintain the mass accuracy during analysis: 121.050873 (C5H4N4) and 922.009798 (C18H18O6N3P3F24). Five μL of sample were injected on a 150 mm×2.1 mm 3.5 μm SB Aq column (Agilent) with a pre-column 30 mm×2.1 mm 3.5 μm Eclipse plus (Agilent). The gradient mobile phase consisted of water with 10 mmol/L of ammonium acetate and 0.01% of acetic acid (A) and acetonitrile (B). Initial composition of mobile phase was 2% of B, followed by an increase to 95% of B in 10 min. The flow rate was set to 0.3 mL·min^−1.

[4] = test system: autophagy in mice tissues; assay: Autophagy induction in tissues of fed mice (LC3 lipidation, p62, GFP-LC3 dots); assay type: in vivo
Procedure: (§1) C57BL/6 mice (Charles River Laboratory, Lentilly, France) were bred and maintained according to both the FELASA and the Animal Experimental Ethics Committee Guidelines (Val de Marne, France). Mice were housed in a temperature-controlled environment with 12 h light/dark cycles and received food and water ad libitum. For HC-related experiments, mice were injected intraperitoneally with a single 100 mg/kg dose and 6 h later were sacrificed and tissues were immediately frozen in liquid nitrogen. For DCA- and DMKG-related experiments, mice were subjected to 24 h starvation and injected intraperitoneally each 8 h with a 100 mg/kg of either DCA or DMKG solution prepared in PBS. After 24 h of starvation, mice were sacrificed and tissues were immediately frozen in liquid nitrogen after extraction and homogenized two cycles for 20 s at 5,500 rpm using Precellys 24 tissue homogenator (Bertin Technologies, Montigny-le-Bretonneux, France) in a 20 mM Tris buffer (pH 7.4) containing 150 mM NaCl, 1% Triton X-100, 10 mM EDTA and Complete® protease inhibitor cocktail (Roche Applied Science). Tissue extracts were then centrifuged at 12,000 g at 4° C. and supernatants were collected. Protein concentration in the supernatants was evaluated by the bicinchoninic acid technique (BCA protein assay kit, Pierce Biotechnology, Rockford, Ill.). For hydroxycitrate-related weight-loss experiments, autophagy-deficient Atg4b^−/− mice were used. Atg4b^−/− mice have been previously described (Mariño et al., 2010). For HC-, spermidine-, and resveratrol-related experiments (tumour growth) mice were intraperitoneally injected with respectively 100 mg/kg, 50 mg/kg and 100 mg/kg doses at day 8 and day 9. At day 9, mice were intraperitoneally injected with 2 mg/kg single dose of Mitoxanthrone. For starvation related experiment (tumour growth) mice were treated as previously described (Fabrizio et. al., 2010).
To avoid post-mortem autophagy induction, dead mice were immediately perfused with 4% paraformaldehyde (w:v in PBS, pH 7.4). Tissues were then harvested and further fixed with the same solution for at least 4 h, followed by treatment with 15% sucrose (w:v in PBS) for 4 h and with 30% sucrose (w:v in PBS) overnight. Tissue samples were embedded in Tissue-Tek OCT compound (Sakura Finetechnical Co. Ltd., Tokyo, Japan) and stored at −70° C. Five μm-thick tissue sections were prepared with a CM3050 S cryostat (Leica Microsystems GmbH, Wetzlar, Germany), air-dried for 1 h, washed in PBS for 5 min, dried at RT for 30 min, and mounted with VECTASHIELD anti-fading medium. In each organ, the number of GFP-LC3 dots was counted in five independent visual fields from at least five mice using a TCS SP2 confocal fluorescence microscope (Leica Microsystems GmbH).
Six weeks old female C57BL/6, Balb/c and nude athymic mice (Harlan Laboratory, Gannat, France) were bred and maintained according to both the FELASA and the Animal Experimental Inserm Ethics Committee Guidelines (project: 2012-69). Mice were housed in a temperature-controlled environment with 12 h light/dark cycles and received food and water ad libitum. For tumor growth experiments, procedures adopted are described as follows: 3×10^5 tumor cells were subcutaneously inoculated; when tumors became palpable (day −1 before chemotherapy), mice were first intraperitoneally injected with 100 mg/kg Potassium Hydroxycitrate, 10 mg/kg Acetylsalicylic Acid, 30 mg/kg SB204990, 30 mg/kg c646, 5 mg/kg Rapamycin, 25 mg/kg Resveratrol, 50 mg/kg Spermidine. At day 0, mice were intraperitoneally injected with the abovementioned compounds and with 5.17 mg/Kg Mitoxanthrone or 5 mg/kg Oxaliplatin. Tumor size was measured every two days. For starvation experiments, mice underwent 48 hour fasting followed by intreperitoneal injection of chemotherapeutics. […]

MCA205 tumor = assay: Growth of transplantable tumors with chemotherapy; assay type: in vivo, mice; details: for tumor growth, combined with MTX: immunocompetent wild type mice, agent given before and with mitoxanthrone; for tumor growth, combined with MTX, immunodeficient mice: nu/nu (nude athymic) mice
Procedure: as §1
Six weeks old female C57BL/6, Balb/c and nude athymic mice (Harlan Laboratory, Gannat, France) were bred and maintained according to both the FELASA and the Animal Experimental Inserm Ethics Committee Guidelines (project: 2012-69). Mice were housed in a temperature-controlled environment with 12 h light/dark cycles and received food and water ad libitum. For tumor growth experiments, procedures adopted are described as follows: 3×10^5 tumor cells were subcutaneously inoculated; when tumors became palpable (day −1 before chemotherapy), mice were first intraperitoneally injected with 100 mg/kg Potassium Hydroxycitrate, 10 mg/kg Acetylsalicylic Acid, 30 mg/kg SB204990, 30 mg/kg c646, 5 mg/kg Rapamycin, 25 mg/kg Resveratrol, 50 mg/kg Spermidine. At day 0, mice were intraperitoneally injected with the abovementioned compounds and with 5.17 mg/Kg Mitoxanthrone or 5 mg/kg Oxaliplatin. Tumor size was measured every two days. For starvation experiments, mice underwent 48 hour fasting followed by intreperitoneal injection of chemotherapeutics. For autophagy induction study, 6 hours after CRMs administration, mice were sacrificed and tissues were snap-frozen in liquid nitrogen after extraction and homogenized two cycles for 20 s at 5,500 rpm using Precellys 24 tissue homogenator (Bertin Technologies, Montigny-le-Bretonneux, France) in a 20 mM Tris buffer (pH 7.4) containing 150 mM NaCl, 1% Triton X-100, 10 mM EDTA and Complete® protease inhibitor cocktail (Roche Applied Science, Penzberg, Germany). Tissue extracts were then centrifuged at 12,000 g at 4° C. and supernatants were collected. Protein concentration in the supernatants was evaluated by the bicinchoninic acid technique (BCA protein assay kit, Pierce Biotechnology, Rockford, US.

[5] = chronic treatment; cited from earlier work

Cn1cnc(N)c2ncnc1-2 [3-MA, 3-methyladenine]
cellular ATP levels in starved cells (cellular ATP levels): similarly reduced ATP content

CC(=O)SCCNC(=O)CCNC(=O)[C@H](O)C(C)(C)COP(=O)(O)OP(=O)(O)OC[C@H]1O[C@@H](n2cnc3c(N)ncnc32)[C@H](O)[C@@H]1OP(=O)(O)O [AcCoA, acetyl-coenzyme A]
Hydroxycitrate-induced autophagy after microinjection [1]: suppressed by microinjection of AcCoA
Hydroxycitrate-induced autophagy after microinjection ([1]; listed as Acetyl CoA): inhibits Hydroxycitrate-induced autophagy
cytoplasmic protein acetylation after microinjection ([1]; starved cells): increased the levels of cytoplasmic protein acetylation
starvation-induced autophagic flux after microinjection ([1]; starved cells): reduced starvation-induced autophagic flux

O=C1c2c(O)ccc(O)c2C(=O)c2c(NCCNCCO)ccc(NCCNCCO)c21 [MTX, mitoxanthrone]
mammary tumor growth, monotherapy [2]: had little effect

NC(=O)CC[C@H](N)C(=O)O [glutamine]
intracellular amino acid levels [3]: did increase cellular glutamate levels

Oc1ccc(C=Cc2cc(O)cc(O)c2)cc1 [resveratrol]
autophagy in vivo (LC3 lipidation, p62, GFP-LC3) [4]: elicits autophagy in mice muscle after 6 hours
tumor growth, combined with MTX (MCA205 tumor): capable to recapitulate the positive combinatorial effect of starvation; also recorded: HC could be replaced
tumor growth, combined with MTX (MCA205 tumor; listed as Resveratrol): mimics the effects of 48 h fasting in delaying subcutaneous MCA205 tumor growth
tumor growth, combined with MTX, immunodeficient mice (MCA205 tumor): failed

NCCCCNCCCN [spermidine]
health and life spans of mice [5]: extends the health and life spans of mice
autophagy in vivo (LC3 lipidation, p62, GFP-LC3) [4]: elicits autophagy in mice muscle after 6 hours
tumor growth, combined with MTX (MCA205 tumor): capable to recapitulate the positive combinatorial effect of starvation; also recorded: HC could be replaced
tumor growth, combined with MTX (MCA205 tumor; listed as Spermidine): mimics the effects of 48 h fasting in delaying subcutaneous MCA205 tumor growth; also recorded: can enhance chemotherapy efficacy
tumor growth, combined with MTX, immunodeficient mice (MCA205 tumor): failed
